Assay results as given in patent US8932853B2, “Method for manufacturing pancreatic-hormone-producing cells” (Takeda Pharmaceutical Company Limited, priority 2009, dated 2015).
“Also recorded” adds a separate entry of the source.

Experiments:
Type in all cases: cell-based
[1] = system: progenitor cells of pancreatic hormone-producing cells induced from human iPS cells; test: immunofluorescent staining with anti-insulin antibody after step (4); settings: each added alone in step (4), day 10 to day 21; forskolin 10 μM, dibutyl cAMP 500 μM, IBMX 200 μM, ALK5 inhibitor II 5 μM, A-83-01 0.5 μM, SB431542 10 μM, TGFβRI kinase inhibitor VIII 2 μM, dexamethasone 10 μM, hydrocortisone 5 μM, betamethasone 2 μM, beclomethasone 1 μM
[2] = system: insulin-producing cells differentiated from human iPS cells; test: C-peptide secretion of differentiated insulin-producing cells in response to stimulation (Human C-peptide ELISA); settings: 1 hr at 37° C. in buffer containing 2.5 mM glucose; (−)-Bay K8644 2 μM, tolbutamide 100 μM, carbachol 250 μM, IBMX 0.5 mM, KCl 30 mM; relative to 2.5 mM glucose
Method: The medium was changed once on day 7 of induction. […] The medium was changed every 3-4 days. After the culture, the cells were washed with a buffer containing 2.5 mM glucose (NaCl (116 mM), KCl (4.7 mM), KH2PO4 (1.18 mM), MgSO4 (1.18 mM), NaHCO3 (25 mM), CaCl2 (2.52 mM), HEPES (24 mM), 0.1% BSA), a buffer containing 2.5 mM glucose was added and the mixture was cultured at 37° C. for 2 hr. The supernatant was completely removed, and a buffer containing 2.5 mM glucose, a buffer containing 22.5 mM glucose, a buffer containing 2.5 mM glucose and 2 μM (−)-Bay K8644, a buffer containing 2.5 mM glucose and 100 μM tolbutamide, a buffer containing 2.5 mM glucose and 250 μM carbachol, a buffer containing 2.5 mM glucose and 0.5 mM IBMX, and a buffer containing 2.5 mM glucose and 30 mM KCl were respectively added. After culture at 37° C. for 1 hr, the culture supernatant was recovered, and the C-peptide contained in the culture supernatant was measured using Human C-peptide ELISA kit (Mercodia AB).

[3] = system: endodermal cells induced from human iPS cells; settings: added simultaneously with dorsomorphin (1 μM) and retinoic acid (2 μM) day 3 to day 10; SB431542 5 μM, ALK5 inhibitor II 2 μM, A-83-01 0.2 μM, TGFβRI kinase inhibitor VIII 0.2 μM; vs dorsomorphin and retinoic acid alone
Method: The dorsomorphin is an inhibitor of AMP-activated protein kinase (AMPK), and an inhibitor of ALK2, ALK3 and ALK6 from among activin receptor-like kinases (ALK). In addition, SB431542 is an inhibitor of ALK4, ALK5 and ALK7 from among ALKs.
As a control, the medium was changed to one added with dorsomorphin and retinoic acid alone (Ctrl). […] After the culture, the expression level of NGN3, which is progenitor cells of pancreatic hormone-producing cells marker, was measured in the same manner as in Example 1.

[4] = system: human iPS cells (253G1 strain); test: immunofluorescent staining with anti-SOX17 antibody on day 3 of differentiation induction
Method: To examine expression of SOX17 protein after culture for 3 days, immunofluorescent staining using an anti-SOX17 antibody was performed. After culture up to day 3 in the same manner as in FIG. 1, the cells were fixed with 2% para-formaldehyde (PFA) for 10 min and further for 20 min with 4% PFA at room temperature.
Whether even use of a GSK3 inhibitor other than CHIR99021 in step (1) enables differentiation induction into endodermal cells was examined. The differentiation of human iPS cells into endodermal cells was induced according to the following method. […] Thereafter, the cells were washed with RPMI medium (GIBCO), and cultured for 1 day in RPMI medium containing various GSK3 inhibitors, activin A (100 ng/ml) and 2% fetal bovine serum (FBS). […] As a control, the cells were treated with a medium added only with activin A and free of GSK3 inhibitor. After culture for 1 day, the cells were washed with RPMI medium, and further cultured for 2 days in RPMI medium added with 2% FBS and 100 ng/ml activin A.
To examine expression of SOX17 protein on day 3 of differentiation induction, immunofluorescent staining using an anti-SOX17 antibody was performed. 4% PFA was added to the cells on day 3 of culture under each condition, the mixture was incubated at room temperature for 30 min to fix the cells.

[5] = system: human iPS cells (253G1 strain); test: quantitative RT-PCR of BRACHYURY and SOX17 during induction of human iPS cells into endodermal cells, steps (1)-(2); settings: added with activin A (100 ng/ml) only the first day, CHIR99021 3 μM, Wnt3a 25 ng/ml, relative to GAPDH
Text: As a first stage for induction of differentiation of human iPS cells (iPS cells obtained by introducing Oct3/4 gene, Klf4 gene and Sox2 gene: see Nat Biotechnol 2008; 26: 101-106) into pancreas cells (particularly pancreatic hormone-producing cells), differentiation of human iPS cells was induced into endodermal cells by using a 96 well plate.
As the human iPS cells, 253G1 strain (iPS cell line produced by expressing OCT4/SOX2/KLF4 with retrovirus; Nature Biotechnology 26, 101-106) was used. Maintenance culture of the iPS cells in an undifferentiated state was performed using mitomycin-treated mouse fibroblast (MEFs) seeded on a gelatin-coated plate as feeder cells, and a medium for primate ES cells (ReproCELL Incorporated) added with 4 ng/ml bFGF (PeproTech EC) and 0.5× Penicillin-streptomycin (SIGMA) as a medium at 37° C. under 5% CO2. The medium was changed every day, the cell mass was detached every 4-5 days using a cell detachment solution for primate ES cell (ReproCELL Incorporated), and passaged by seeding on new feeder cells.
As a preculture for differentiation induction into endodermal cells, undifferentiated iPS cells were seeded in a 96 well plate. First, iPS cells maintained in a cell mass was treated with 0.25% trypsin-1 mM EDTA solution (GIBCO) and dissociated until they became single cells. Then, iPS cells dispersed in a medium were seeded in a 96 well plate at a density of 2×10^4 cells per well and cultured at 37° C. under 5% CO2 for 1 day. The 96 well plate used had been gelatin-coated, seeded with 5×10^3 MEFs and cultured at 37° C. under 5% CO2 for 5 hr. In addition, as a culture medium for seeding, a medium for primate ES cells added with 10 μM Y-27632 (Wako Pure Chemical Industries, Ltd.) was used. One day after seeding, the medium was changed to a medium for primate ES cells without Y-27632, and the cells were further cultured for 2 days until they became confluent.
Differentiation of iPS cells into endodermal cells was induced according to the following method. First, the confluent cells were washed with RPMI medium (GIBCO), RPMI medium containing various differentiation-inducing factors and 2% fetal bovine serum (FBS) was added, and the mixture was cultured for 1 day. […]
To examine variation in the expression of endoderm differentiation marker when cultured under each condition, differentiation-induced cells were recovered over time, and the total RNA fractions were purified using RNeasy96 (Qiagen). Using a PrimeScript RT reagent kit (Takara Bio Inc.), cDNA was synthesized, and quantitative RT-PCR was performed, whereby the gene expression level of BRACHYURY, which is a primitive streak marker, and SOX17, which is an endodermal marker, was measured.

C[C@]12CCC(=O)C=C1CC[C@@H]1[C@@H]2[C@@H](O)C[C@@]2(C)[C@H]1CC[C@]2(O)C(=O)CO [hydrocortisone]
positive rate of insulin-expressing cells [1]: remarkably increased; also recorded: induced differentiation into insulin-positive cells with high efficiency

[Cl-].[K+] [KCl]
C-peptide secretion level [2]: increased

Cc1cccc(-c2[nH]c(C(C)(C)C)nc2-c2ccc3nccnc3c2)n1 [TGFβRI kinase inhibitor VIII, 6-[2-tert-butyl-5-[6-methyl-pyridin-2-yl]-1H-imidazol-4-yl]-quinoxaline]
expression level of NGN3 [3]: increased remarkably | positive rate of insulin-expressing cells [1]: remarkably increased; also recorded: induced differentiation into insulin-positive cells with high efficiency

NC(=O)c1ccc(-c2nc(-c3ccc4c(c3)OCO4)c(-c3ccccn3)[nH]2)cc1 [SB431542, 4-[4-(1,3-benzodioxol-5-yl)-5-(2-pyridinyl)-1H-imidazol-2-yl]-benzamide]
expression level of NGN3 [3]: increased remarkably | positive rate of insulin-expressing cells [1]: remarkably increased; also recorded: induced differentiation into insulin-positive cells with high efficiency

C[C@H]1C[C@H]2[C@@H]3CCC4=CC(=O)C=C[C@]4(C)[C@@]3(Cl)[C@@H](O)C[C@]2(C)[C@@]1(O)C(=O)CO [beclomethasone]
positive rate of insulin-expressing cells [1]: remarkably increased; also recorded: induced differentiation into insulin-positive cells with high efficiency

C[N+](C)(C)CCOC(N)=O [carbachol]
C-peptide secretion level [2]: increased

CC(C)Cn1c(=O)n(C)c(=O)c2[nH]cnc21 [IBMX, 3-isobutyl-1-methylxanthine]
positive rate of insulin-expressing cells [1]: remarkably increased; also recorded: induced differentiation into insulin-positive cells with high efficiency | C-peptide secretion level [2]: increased

CCCC(=O)Nc1ncnc2c1ncn2[C@@H]1O[C@@H]2COP(=O)(O)O[C@H]2[C@H]1OC(=O)CCC [dibutyl cAMP]
positive rate of insulin-expressing cells [1]: remarkably increased; also recorded: induced differentiation into insulin-positive cells with high efficiency

Cc1cccc(-c2nn(C(=S)Nc3ccccc3)cc2-c2ccnc3ccccc23)n1 [Example A-83-01, 3-[6-methyl-2-pyridinyl]-N-phenyl-4-[4-quinolinyl]-1H-pyrazole-1-carbothioamide]
expression level of NGN3 [3]: increased remarkably | positive rate of insulin-expressing cells [1]: remarkably increased; also recorded: induced differentiation into insulin-positive cells with high efficiency

COC(=O)C1=C(C)NC(C)=C([N+](=O)[O-])C1c1ccccc1C(F)(F)F (single isomer, unassigned; (-)) [(−)-Bay K8644]
C-peptide secretion level [2]: increased

CCCCNC(=O)NS(=O)(=O)c1ccc(C)cc1 [tolbutamide]
C-peptide secretion level [2]: increased

Cc1c[nH]c(-c2cnc(NCCNc3ccc(C#N)cn3)nc2-c2ccc(Cl)cc2Cl)n1 [CHIR99021, 6-[[2-[[4-(2,4-dichlorophenyl)-5-(4-methyl-1H-imidazol-2-yl)-2-pyrimidinyl]amino]ethyl]amino]nicotinonitrile]
ratio of cells expressing SOX17 protein ([4]; added with activin A (100 ng/ml) for 1 day, then activin A alone 2 days, CHIR99021 3 μM, Wnt3a 25 ng/ml, SB415286 3 μM, SB216763 20 μM): highest; also recorded: increased | expression level of SOX17 (endodermal marker) ([5]; then activin A alone 2 days, days 2-3): increased markedly; also recorded: high value | expression level of BRACHYURY (primitive streak marker) ([5]; day 1 of differentiation induction): transiently increased; also recorded: highest value

B1: activin A: 24 kD peptidic cell proliferation and differentiation factor belonging to the TGFβ family; activator of activin receptor-like kinase-4,7 (protein, UniProt P08476 311-426, looked up)
Inhibin beta A chain: GLECDGKVNICCKKQFFVSFKDIGWNDWIIAPSGYHANYCEGECPSHIAGTSGSSLSFHSTVINHYRMRGHSPFANLKSCCVPTKLRPMSMLYYDDGQNIIKKDIQNMIVEECGCS
modifications: Inhibin beta A chain
ratio of cells expressing SOX17 protein ([4]; activin A (100 ng/ml) alone for 3 days (Comparative Example 1)): a part of the cells also expressed SOX17 protein
